# Test results: US9133235B2, “Macrocyclic antagonists of the motilin receptor for treatment of gastrointestinal dysmotility disorders” (Ocera Therapeutics, Inc., priority 2006, dated 2015)
# Where two headings read alike, the source gives them in different places.
# Legend:
# [1] = test system: strips of rabbit duodenum; assay: Rabbit duodenum contractility assay; details: pA2 from Schild plot, motilin dose response after 15 minute incubation
# Method: D. Rabbit Duodenum Contractility Assay
# Evaluation of compounds of the invention for ex vivo activity was conducted on strips of rabbit duodenum according to literature methods. (Van Assche, G.; Depoortere, I.; Thijs, T.; Janssens, J. J.; Peeters, T. L. Eur. J. Pharmacol. 1997, 337, 267-274; Matthijs, G.; Peeters, T. L.; Vantrappen, G. Naunyn-Schmiedeberg's Arch. Pharmacol. 1989, 339, 332-339.) Related methods can also be employed for this type of study. (Tomomasa, T.; Yagi, H.; Kimura, S.; Snape, W. J., Jr.; Hyman, P. E. Pediatric Res. 1989, 26, 458-461; Takanishi, H.; Yogo, K.; Ozaki, M.; Akima, M.; Koga, H.; Nabata, H. J. Pharm. Exp. Ther. 1995, 273, 624-628.)
# Duodenal segments were vertically suspended in organ chambers of 10 mL filled with Krebs buffer and connected to an isotonic force transducer, with a preload of 1 g. After a stabilization period, the muscle strips were challenged with 10^−4 M acetylcholine and washed. This was repeated until a stable maximal contraction was obtained (2-3 times), with an interval of at least 20 minutes.
# After a stable base line was reached, test compounds were added to the bath. After a 15 minute incubation, a dose response to motilin was recorded by adding logarithmically increasing concentrations of motilin to the bath (final concentration 10^−9 to 10^−6 M). A blank experiment (no test compound present) was also performed. At the end of the dose response curve, a supramaximal dose of acetylcholine (10^−4 M) was given and this response was used as a reference (100% contraction).
# The results of experiments at different concentrations of test compound were combined and analyzed to derive the pA2 value from the Schild plot.
# [2] = Pharmacokinetic analysis in rat (i.v., s.c., p.o.); format: in vivo; details: for half-life: read-out: Elimination (t1/2, min)
# Text: I. Pharmacokinetic Analysis of Representative Compounds of the Invention
# The pharmacokinetic behavior of compound of the invention can be ascertained by methods well known to those skilled in the art. (Wilkinson, G. R. “Pharmacokinetics: The Dynamics of Drug Absorption, Distribution, and Elimination” in Goodman & Gilman's The Pharmacological Basis of Therapeutics, Tenth Edition, Hardman, J. G.; Limbird, L. E., Eds., McGraw Hill, Columbus, Ohio, 2001, Chapter 1.) The following method was used to investigate the pharmacokinetic parameters (elimination half-life, total plasma clearance, etc.) for intravenous, subcutaneous and oral administration of compounds of the present invention.
# Rats: male, Sprague-Dawley (˜250 g)
# Rats/Treatment Group: 6 (2 subsets of 3 rats each, alternate bleeds)
# Each sample of test compound was sent in solution in a formulation (such as with cyclodextrin) appropriate for dosing. It will be appreciated by one skilled in the art that appropriate modifications to this protocol can be made as required to adequately test the properties of the compound under analysis.
# 1. Intravenous (i.v.): 2 mg/kg
# 2. Subcutaneous(s.c): 2 mg/kg
# Plasma Collection 1. Same protocol for all dosing groups 2. For each group, 2 subsets (A and B) of 3 rats/subset
# At the time intervals indicated above, 0.7 mL of blood were collected from each animal. It is expected that this volume of blood will yield a sample of at least 0.3 mL of plasma. EDTA was used as an anti-coagulant for whole blood collection. Whole blood samples were chilled and immediately processed by centrifugation to obtain plasma.
# Plasma samples were stored frozen (−70° C.) until analysis. Analytical detection of parent compound in plasma samples performed by LC-MS after an appropriate preparation protocol: extraction using solid phase extraction (SPE) cartridges (Oasis MCX, Oasis HLB) or liquid-liquid extraction.
# Column: Atlantis dC18 from Waters 2.1×30 mm
# A: 95% MeOH, 5% water, 0.1% TFA
# B: 95% water, 5% MeOH, 0.1% TFA
# The analyte was quantitated based upon a standard curve and the method validated with internal standards.
Clearance ([2]; i.v.) [mL/min/kg],"Elimination (t1/2, min) ([2]; i.v., typical dose 2 mg/kg) [min]",Clearance ([2]; s.c.) [mL/min/kg],"Elimination (t1/2, min) ([2]; s.c., typical dose 2 mg/kg) [min]","Elimination (t1/2, min) ([2]; p.o., typical dose 8 mg/kg, without cyclodextrin) [min]","Bioavailability (oral) ([2]; p.o., without cyclodextrin) [%]","Clearance ([2]; male, Sprague-Dawley, plasma, iv, 1.9 mg/kg, i.v., read-out: Clearance) [mL/min/kg]","half-life ([2]; male, Sprague-Dawley, plasma, iv, typical dose 2 mg/kg) [min]","bioavailability ([2]; male, Sprague-Dawley, plasma, po, 8 mg/kg, in the presence of 10% beta-cyclodextrin) [%]","half-life ([2]; male, Sprague-Dawley, plasma, po, typical dose 8 mg/kg, in the presence of 10% beta-cyclodextrin) [min]","half-life ([2]; male, Sprague-Dawley, plasma, sc, typical dose 2 mg/kg) [min]",Structure (SMILES),Contractile Potency (pA2) [1]
57,102,79,146,–,–,–,–,–,–,–,CC(C)[C@H]1NC(=O)[C@@H](Cc2cccc(C(F)(F)F)c2)NCCOc2ccccc2CCCNC(=O)[C@H](CN(C)C)NC1=O [Compound 502],7.92
33,139,–,–,70 to 125,6,–,–,–,–,–,CCC[C@@H]1NC(=O)[C@@H](C(C)C)NC(=O)[C@@H](Cc2cccc(F)c2)N[C@@H](C)COc2ccccc2CCCNC1=O [Compound 551],8.29
–,–,39,–,–,–,45,24,10,307,103,CCC[C@@H]1NC(=O)[C@@H](C(C)C)NC(=O)[C@@H](Cc2ccc(O)c(Cl)c2)N[C@@H](C)COc2ccccc2CCCNC1=O [Compound 552],–
–,–,–,–,–,–,–,–,–,–,–,CCC[C@@H]1NC(=O)[C@@H](C(C)C)NC(=O)[C@@H](Cc2ccc(O)c(C(C)(C)C)c2)NCCOc2ccccc2CCCNC1=O [Compound 553],8.71
